In patent publication US9586962B2, “Disubstituted octahydropyrrolo [3,4-C] pyrroles as orexin receptor modulators” (Janssen Pharmaceutica NV, priority 2011, dated 2017):

target: human orexin 2 receptor (Homo sapiens (Human), UniProt O43614); assay: Human orexin 2 receptor Ca2+ mobilization assay (FLIPR, PFSK cells, orexin B 100 nM); assay type: cell-based; conditions: modified Cheng-Prusoff correction, read-out: OR 2 Kb
Method: Human Orexin 2 Receptor Ca^2+ Mobilization Assay
Cells were seeded on to 96-well Packard viewplates at a density of 50,000 cells/well and incubated overnight at 37° C., 5% CO2. The cells were dye-loaded with 4 μM Ca^2+ dye Fluo-3AM in serum-free DMEM/F-12 with 2.5 mM probenecid and incubated at 37° C., 5% CO2 for one hour. Cells were pre-incubated with compounds (diluted in DMEM/F-12) for 30 minutes before agonist (orexin B, 100 nM) stimulation. Ligand-induced Ca^2+ release was measured using a Fluorometric Imaging Plate Reader (FLIPR, Molecular Devices, Sunnyvale, Calif.). Functional responses were measured as peak fluorescence intensity minus basal. The concentration of agonist that produced a half-maximal response is represented by the EC50 value. Antagonistic potency values were converted to apparent pKB values using a modified Cheng-Prusoff correction. Apparent pKB=−log IC50/1+[conc agonist/EC50]. Data are expressed as mean±S.E.M, the designation of NT means not tested.

Chain of human orexin 2 receptor (O43614 whole entry): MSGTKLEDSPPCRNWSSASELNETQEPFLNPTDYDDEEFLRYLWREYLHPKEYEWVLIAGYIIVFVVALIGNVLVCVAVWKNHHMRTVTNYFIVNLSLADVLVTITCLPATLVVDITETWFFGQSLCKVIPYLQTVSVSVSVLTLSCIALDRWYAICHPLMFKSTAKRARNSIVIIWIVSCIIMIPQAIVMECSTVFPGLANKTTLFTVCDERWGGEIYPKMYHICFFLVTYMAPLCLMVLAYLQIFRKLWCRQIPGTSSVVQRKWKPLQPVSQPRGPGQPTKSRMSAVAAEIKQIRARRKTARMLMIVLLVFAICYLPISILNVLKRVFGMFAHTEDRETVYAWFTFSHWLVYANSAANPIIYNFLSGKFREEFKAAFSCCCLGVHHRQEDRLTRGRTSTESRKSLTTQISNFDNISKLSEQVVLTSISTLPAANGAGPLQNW

SMILES | Kb
COc1cc(OC)nc(N2CC3CN(C(=O)c4c(F)cccc4-c4ncccn4)CC3C2)n1 (stereo not shown) [Example 68, 2-(4,6-Dimethoxypyrimidin-2-yl)-5-[(2-fluoro-6-pyrimidin-2-ylphenyl)carbonyl]octahydropyrrolo[3,4-c]pyrrole] | 0.016 µM
Cc1cc(C)nc(N2CC3CN(C(=O)c4ccccc4-c4ccccn4)CC3C2)n1 (stereo not shown) [Example 69, 2-(4,6-Dimethylpyrimidin-2-yl)-5-[(2-pyridin-2-ylphenyl)carbonyl]octahydro-pyrrolo[3,4-c]pyrrole] | 0.008 µM
COc1cc(OC)nc(N2CC3CN(C(=O)c4ccccc4-c4ccccn4)CC3C2)n1 (stereo not shown) [Example 70, 2-(4,6-Dimethoxypyrimidin-2-yl)-5-[(2-pyridin-2-ylphenyl)carbonyl]octahydro-pyrrolo[3,4-c]pyrrole] | 0.04 µM
Cc1cc(C)nc(N2CC3CN(C(=O)c4c(F)cccc4-c4ncccn4)CC3C2)n1 (stereo not shown) [Example 73, 2-(4,6-Dimethylpyrimidin-2-yl)-5-[(2-fluoro-6-pyrimidin-2-ylphenyl)carbonyl]octahydropyrrolo[3,4-c]pyrrole] | 0.005 µM
Cc1cc(C)nc(N2CC3CN(C(=O)c4cc(F)ccc4-c4ncccn4)CC3C2)n1 (stereo not shown) [Example 74, 2-(4,6-Dimethylpyrimidin-2-yl)-5-[(5-fluoro-2-pyrimidin-2-ylphenyl)carbonyl]octahydropyrrolo[3,4-c]pyrrole] | 0.01 µM
CCOc1ccc2ccccc2c1C(=O)N1CC2CN(c3nc(C)cc(C)n3)CC2C1 (stereo not shown) [Example 77, 2-(4,6-Dimethylpyrimidin-2-yl)-5-[(2-ethoxynaphthalen-1-yl)carbonyl]octahydro-pyrrolo[3,4-c]pyrrole] | 0.016 µM
COc1cc(OC)nc(N2CC3CN(C(=O)c4ccccc4-n4nccn4)CC3C2)n1 (stereo not shown) [Example 84, 2-(4,6-Dimethoxypyrimidin-2-yl)-5-{[2-(2H-1,2,3-triazol-2-yl)phenyl]carbonyl}octahydropyrrolo[3,4-c]pyrrole] | 0.025 µM
O=C(c1ccccc1-c1nnc[nH]1)N1CC2CN(c3cnc4ccccc4n3)CC2C1 (stereo not shown) [Example 85, 2-[5-{[2-(4H-1,2,4-Triazol-3-yl)phenyl]carbonyl}hexahydropyrrolo[3,4-c]pyrrol-2(1H)-yl]quinoxaline] | 0.063 µM
CCOc1ccccc1C(=O)N1CC2CN(c3nc(C)cc(C)n3)CC2C1 (stereo not shown) [Example 88, 2-(4,6-Dimethylpyrimidin-2-yl)-5-[(2-ethoxyphenyl)carbonyl]octahydropyrrolo[3,4-c]pyrrole] | 0.025 µM
Cc1cc(C)nc(N2CC3CN(C(=O)c4ccc(F)c5ccccc45)CC3C2)n1 (stereo not shown) [Example 90, 2-(4,6-Dimethylpyrimidin-2-yl)-5-[(4-fluoronaphthalen-1-yl)carbonyl]octahydro-pyrrolo[3,4-c]pyrrole] | 0.025 µM
Cc1cc(C)nc(N2CC3CN(C(=O)c4cccc5ccccc45)CC3C2)n1 (stereo not shown) [Example 93, 2-(4,6-Dimethylpyrimidin-2-yl)-5-(naphthalen-1-ylcarbonyl)octahydropyrrolo[3,4-c]pyrrole] | 0.04 µM
Cc1cc(N2CC3CN(C(=O)c4ccccc4-c4nnc[nH]4)CC3C2)nc(C(F)(F)F)n1 (stereo not shown) [Example 96, 2-[6-Methyl-2-(trifluoromethyl)pyrimidin-4-yl]-5-{[2-(4H-1,2,4-triazol-3-yl)phenyl]carbonyl}octahydropyrrolo[3,4-c]pyrrole] | 0.05 µM
Cc1cc(N2CC3CN(C(=O)c4ccccc4-n4nccn4)CC3C2)nc(C(F)(F)F)n1 (stereo not shown) [Example 97, 2-[6-Methyl-2-(trifluoromethyl)pyrimidin-4-yl]-5-{[2-(2H-1,2,3-triazol-2-yl)phenyl]carbonyl}octahydropyrrolo[3,4-c]pyrrole] | 0.016 µM
Cc1cc(N2CC3CN(C(=O)c4c(F)cccc4-n4nccn4)CC3C2)nc(C(F)(F)F)n1 (stereo not shown) [Example 98, 2-{[2-Fluoro-6-(2H-1,2,3-triazol-2-yl)phenyl]carbonyl}-5-[6-methyl-2-(trifluoromethyl)pyrimidin-4-yl]octahydropyrrolo[3,4-c]pyrrole] | 0.01 µM
Cc1cc(N2CC3CN(C(=O)c4ccc(F)cc4-n4nccn4)CC3C2)nc(C(F)(F)F)n1 (stereo not shown) [Example 99, 2-{[4-Fluoro-2-(2H-1,2,3-triazol-2-yl)phenyl]carbonyl}-5-[6-methyl-2-(trifluoromethyl)pyrimidin-4-yl]octahydropyrrolo[3,4-c]pyrrole] | 0.016 µM
Cc1cnc(C)c(N2CC3CN(C(=O)c4c(F)cccc4-n4nccn4)CC3C2)n1 (stereo not shown) [Example 101, 2-(3,6-Dimethylpyrazin-2-yl)-5-{[2-fluoro-6-(2H-1,2,3-triazol-2-yl)phenyl]carbonyl}octahydropyrrolo[3,4-c]pyrrole] | 0.025 µM

SMILES | Kb
Cc1ccc(-c2ncccn2)c(C(=O)N2CC3CN(c4nc(C)cc(C)n4)CC3C2)c1 (stereo not shown) [Example 102, 2-(4,6-Dimethylpyrimidin-2-yl)-5-[(5-methyl-2-pyrimidin-2-ylphenyl)carbonyl]octahydropyrrolo[3,4-c]pyrrole] | 0.006 µM
Cc1ccc(-c2ncccn2)c(C(=O)N2CC3CN(c4nc(C)cnc4C)CC3C2)c1 (stereo not shown) [Example 103, 2-(3,6-Dimethylpyrazin-2-yl)-5-[(5-methyl-2-pyrimidin-2-ylphenyl)carbonyl]octahydropyrrolo[3,4-c]pyrrole] | 0.032 µM
Cc1cnc(C)c(N2CC3CN(C(=O)c4ccc(F)cc4-n4nccn4)CC3C2)n1 (stereo not shown) [Example 104, 2-(3,6-Dimethylpyrazin-2-yl)-5-{[4-fluoro-2-(2H-1,2,3-triazol-2-yl)phenyl]carbonyl}octahydropyrrolo[3,4-c]pyrrole] | 0.025 µM
CN(C)c1nc(N2CC3CN(C(=O)c4c(F)cccc4-n4nccn4)CC3C2)cc(C(F)(F)F)n1 (stereo not shown) [Example 106, 4-[5-{[2-Fluoro-6-(2H-1,2,3-triazol-2-yl)phenyl]carbonyl}hexahydropyrrolo[3,4-c]pyrrol-2(1H)-yl]-N,N-dimethyl-6-(trifluoromethyl)pyrimidin-2-amine] | 0.02 µM
Cc1ccc(-c2ncccn2)c(C(=O)N2CC3CN(c4cc(C(F)(F)F)nc(N(C)C)n4)CC3C2)c1 (stereo not shown) [Example 108, N,N-Dimethyl-4-{5-[(5-methyl-2-pyrimidin-2-ylphenyl)carbonyl]hexahydropyrrolo[3,4-c]pyrrol-2(1H)-yl}-6-(trifluoromethyl)pyrimidin-2-amine] | 0.025 µM
CN(C)c1nc(N2CC3CN(C(=O)c4cc(F)ccc4-c4ncccn4)CC3C2)cc(C(F)(F)F)n1 (stereo not shown) [Example 109, 4-{5-[(5-Fluoro-2-pyrimidin-2-ylphenyl)carbonyl]hexahydropyrrolo[3,4-c]pyrrol-2(1H)-yl}-N,N-dimethyl-6-(trifluoromethyl)pyrimidin-2-amine] | 0.025 µM
CN(C)c1nc(N2CC3CN(C(=O)c4cc(F)ccc4-n4nccn4)CC3C2)cc(C(F)(F)F)n1 (stereo not shown) [Example 110, 4-[5-{[5-Fluoro-2-(2H-1,2,3-triazol-2-yl)phenyl]carbonyl}hexahydropyrrolo[3,4-c]pyrrol-2(1H)-yl]-N, N-dimethyl-6-(trifluoromethyl)pyrimidin-2-amine] | 0.032 µM
CN(C)c1nc(N2CC3CN(C(=O)c4ccc(F)cc4-n4nccn4)CC3C2)cc(C(F)(F)F)n1 (stereo not shown) [Example 111, [5-(2-Dimethylamino-6-trifluoromethyl-pyrimidin-4-yl)-hexahydro-pyrrolo[3,4-c]pyrrol-2-yl]-(4-fluoro-2-[1,2,3]triazol-2-yl-phenyl)-methanone] | 0.016 µM
Cc1ccc(-c2ncccn2)c(C(=O)N2CC3CN(c4cc(C)nc(C(F)(F)F)n4)CC3C2)c1 (stereo not shown) [Example 112, 2-[(5-Methyl-2-pyrimidin-2-ylphenyl)carbonyl]-5-[6-methyl-2-(trifluoromethyl)pyrimidin-4-yl]octahydropyrrolo[3,4-c]pyrrole] | 0.02 µM
O=C(c1cc(F)ccc1-c1ncccn1)N1CC2CN(c3nccc(-c4ccccc4)n3)CC2C1 (stereo not shown) [Example 113, 2-[(5-Fluoro-2-pyrimidin-2-ylphenyl)carbonyl]-5-(4-phenylpyrimidin-2-yl)octahydropyrrolo[3,4-c]pyrrole] | 0.063 µM
CN(C)c1nc(N2CC3CN(C(=O)c4c(F)cccc4-c4ncccn4)CC3C2)cc(C(F)(F)F)n1 (stereo not shown) [Example 116, 4-{5-[(2-Fluoro-6-pyrimidin-2-ylphenyl)carbonyl]hexahydropyrrolo[3,4-c]pyrrol-2(1H)-yl}-N,N-dimethyl-6-(trifluoromethyl)pyrimidin-2-amine] | 0.013 µM
Cc1cc(N2CC3CN(C(=O)c4c(F)cccc4-c4ncccn4)CC3C2)nc(C(F)(F)F)n1 (stereo not shown) [Example 117, 2-[(2-Fluoro-6-pyrimidin-2-ylphenyl)carbonyl]-5-[6-methyl-2-(trifluoromethyl)pyrimidin-4-yl]octahydropyrrolo[3,4-c]pyrrole] | 0.008 µM
Cc1cc(N(C)C)nc(N2CC3CN(C(=O)c4ccccc4-n4nccn4)CC3C2)n1 (stereo not shown) [Example 119, N,N,6-Trimethyl-2-[5-{[2-(2H-1,2,3-triazol-2-yl)phenyl]carbonyl}hexahydropyrrolo[3,4-c]pyrrol-2(1H)-yl]pyrimidin-4-amine] | 0.013 µM
Cc1cc(N2CC3CN(C(=O)c4ccccc4-n4nccn4)CC3C2)nc(N(C)C)n1 (stereo not shown) [Example 120, N,N,4-Trimethyl-6-[5-{[2-(2H-1,2,3-triazol-2-yl)phenyl]carbonyl}hexahydropyrrolo[3,4-c]pyrrol-2(1H)-yl]pyrimidin-2-amine] | 0.013 µM
CN(C)c1nc(N2CC3CN(C(=O)c4ccccc4-n4nccn4)CC3C2)cc(C(F)(F)F)n1 (stereo not shown) [Example 121, N,N-Dimethyl-4-[5-{[2-(2H-1,2,3-triazol-2-yl)phenyl]carbonyl}hexahydropyrrolo[3,4-c]pyrrol-2(1H)-yl]-6-(trifluoromethyl)pyrimidin-2-amine] | 0.013 µM
